Data taken from patent US5508301A, “Ketorolac derivatives with considerably reduced gastro-intestinal irritation and ulceration” (Roemmers S.A.I.C.F., priority 1993, dated 1996).
Counter-ions that a name gives are not always drawn. Like-named read-outs stand apart in the source and are kept apart here.

Experiments:
[1] = Comparison tests as regards the undesired side effects, overall statement; details: test not shown in the table; compared with 2-(1-pyrrolidinyl)ethyl ester
[2] = Antipyretic effect: temperature increase by beer yeast, rectal temperature, oral administration; assay type: in vivo; details: p.o., rat, rectal temperature 5, 6, 7 and 8 hours after administration, read-out: Antipyretic Effect p.o. of 50
Experimental: (§1) The antipyretic effect was determined by increasing the rat's temperature by means of beer yeast by 20% and the rectal temperature of the rat was measured 5, 6, 7 and 8 hours after the administration. The percentage of increase compared to the comparison sample was measured.

in vivo [3] = details: rat, po
in vivo [4] = details: mouse, po, read-out: Acute Toxicity p.o. LD50 (mg/kg) in the mouse
[5] = rat, in vivo
rat = details: LD50, species not stated in the sentence itself
[6] = rat, in vivo; remark: listed apart in the source
[7] = rat, in vivo; remark: listed apart in the source
[8] = rat, in vivo; remark: listed apart in the source
Experimental: The ulceration effect was determined in three groups of 6 rats each. […] The ulceration effect was evaluated microscopically by means of an ulceration index which corresponds to the sum of evaluations of each animal, multiplied by the percentage of animals above null, divided by the total number of animals (0=normal; 1=minor haemorrhages; 2=considerable haemorrhages; 3=small ulcus; 4=large ulcus, more than 2 mm; 5=perforated ulcus).
The same animals were examined for the degree of injury probability of stomach tissue by means of a microscopic quantification of different degrees of lesions: no change, haemorrhages, necrosis.

[9] = Comparison tests as to the pharmacological effect (analgetic/antiphlogistic and antipyretic), overall statement; assay type: in vivo, rat; details: B compared with A; C compared with pyrrolidine ester
Experimental: The analgetic effect was measured by the test of inhibition of the contortions generated by peritoneal administration of 0.1 ml acetic acid (3%).
The antiinflammatory effect was evaluated by the Paw-Edema method in which carragenin (1%) was used and the percentage of the decrease of the volume increase was measured at the Paw of the rat.
as §1

SMILES | undesired side effects, in words [1] | ED50 [2] | LD50 (in vivo [3]) | LD50 (in vivo [4]) | Possibility of Injuries of Stomach Tissue: animals with haemorrhages [5] | Possibility of Injuries of Stomach Tissue: animals with necrosis [5] | Possibility of Injuries of Stomach Tissue: animals without changes [5] | test of possible injuries of stomach tissue, in words [5] | acute toxicity, in words (rat) | acute toxicity, in words (rat; listed as ketorolac trometamole salt) | ulceration index relative to that detected with (A) [6] | destruction index of the gastric mucosa, in words [7] | undesired side effects compared with trometamole salt of ketorolac, in words [8] | acute toxicity, in words (rat; listed as oxalate of 2-(1-pyrrolidinyl)ethyl ester of ketorolac) | ulceration index relative to that of 2-(1-pyrrolidinyl)ethyl ester [6] | pharmaceutical/pharmacological effect (analgetic/antiphlogistic and antipyretic), in words [9]
O=C(c1ccccc1)c1ccc2n1CCC2C(=O)OCCN1CCCCC1 (centres unmarked) [2-(1-piperidinyl)ethyl ester] | the said advantages will not be obtained | – | – | – | – | – | – | – | – | – | – | – | – | – | – | –
O=C(c1ccccc1)c1ccc2n1CCC2C(=O)OCCN1CCOCC1 (centres unmarked) [2-(4-morpholinyl)ethyl ester] | the said advantages will not be obtained | – | – | – | – | – | – | – | – | – | – | – | – | – | – | –
O=C(c1ccccc1)c1ccc2n1CCC2C(=O)O (centres unmarked) [A] | – | ~3 mg/kg | 105 mg/kg | 118 mg/kg | 2 animals | 4 animals | 0 animals | all show haemorrhages or necrosis | acceptable acute toxicity | comparable and acceptable | – | – | – | – | – | –
O=C(c1ccccc1)c1ccc2n1CCC2C(=O)OCCN1CCCC1 (centres unmarked) [B, oxalate of 2-(1-pyrrolidinyl)ethyl ester of ketorolac] | – | > 3 mg/kg | 235 mg/kg | 93 mg/kg | 0 animals | 0 animals | 6 animals | all animals remain unchanged | acceptable acute toxicity | – | merely one third of that detected with (A) | considerably lower than with (A) | considerably less undesired side effects than the trometamole salt of ketorolac | comparable and acceptable | – | –
CCN(CC)CCOC(=O)C1CCn2c(C(=O)c3ccccc3)ccc21 (centres unmarked) [C, maleate of 2-(diethylamino)ethyl ester of ketorolac] | – | ~3 mg/kg | – | 198 mg/kg | 0 animals | 5 animals | 1 animals | much greater with the former than with the latter | comparable and acceptable | – | – | – | – | – | twice as high as that of 2-(1-pyrrolidinyl)ethyl ester | practically the same
